For one experiment, the target named is D(3) dopamine receptor (Homo sapiens, UniProt P35462). In words: biochemical.
The next experiment addresses D(1A) dopamine receptor (Sus scrofa, UniProt P50130). In words: Binding affinity towards D1 receptor from porcine striatal membranes using [3H]-SCH- 23390.
The target of a further experiment is T1, D(4) dopamine receptor (Homo sapiens, UniProt P21917).
T1 sequence (P21917 whole entry): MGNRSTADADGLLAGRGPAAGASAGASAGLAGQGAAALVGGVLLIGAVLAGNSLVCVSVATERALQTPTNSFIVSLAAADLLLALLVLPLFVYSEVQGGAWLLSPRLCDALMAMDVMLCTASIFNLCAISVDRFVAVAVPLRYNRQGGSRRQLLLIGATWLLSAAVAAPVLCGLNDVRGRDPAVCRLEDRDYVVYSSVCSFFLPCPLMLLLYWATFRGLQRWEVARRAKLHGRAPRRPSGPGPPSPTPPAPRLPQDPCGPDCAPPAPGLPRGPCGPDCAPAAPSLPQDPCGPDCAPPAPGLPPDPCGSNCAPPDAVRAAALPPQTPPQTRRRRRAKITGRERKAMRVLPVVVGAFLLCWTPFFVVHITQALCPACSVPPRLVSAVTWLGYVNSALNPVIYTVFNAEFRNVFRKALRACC
In words: biochemical.

The nature of experiment [1]: Binding affinity towards 5-HT2 receptor from porcine cortical membranes using [3H]ketanserin.
For experiment [2], the target named is T2, D(2) dopamine receptor (Homo sapiens, UniProt P14416). In words: biochemical.
T2 sequence (P14416 whole entry): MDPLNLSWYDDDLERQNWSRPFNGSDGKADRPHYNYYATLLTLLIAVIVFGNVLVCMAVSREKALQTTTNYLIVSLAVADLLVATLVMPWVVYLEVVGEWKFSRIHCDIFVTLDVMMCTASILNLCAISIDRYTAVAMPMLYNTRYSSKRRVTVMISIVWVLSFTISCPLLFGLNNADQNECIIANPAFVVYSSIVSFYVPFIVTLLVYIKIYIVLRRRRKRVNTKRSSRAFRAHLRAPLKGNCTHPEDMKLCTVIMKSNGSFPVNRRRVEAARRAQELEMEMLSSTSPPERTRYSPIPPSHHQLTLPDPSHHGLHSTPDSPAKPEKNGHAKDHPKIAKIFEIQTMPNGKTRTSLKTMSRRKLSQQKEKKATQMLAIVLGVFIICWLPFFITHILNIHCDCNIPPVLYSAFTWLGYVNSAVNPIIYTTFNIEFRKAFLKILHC
Description: Binding affinity towards human D2 short receptor using [3H]spiperone expressed in CHO cells
For experiment [3], the target named is T2, D(2) dopamine receptor. Briefly: biochemical. The source holds these as a separate data set.
Description: Binding affinity towards human D2 long receptor using [3H]spiperone expressed in CHO cells

Sequence of D(1A) dopamine receptor (P50130 whole entry): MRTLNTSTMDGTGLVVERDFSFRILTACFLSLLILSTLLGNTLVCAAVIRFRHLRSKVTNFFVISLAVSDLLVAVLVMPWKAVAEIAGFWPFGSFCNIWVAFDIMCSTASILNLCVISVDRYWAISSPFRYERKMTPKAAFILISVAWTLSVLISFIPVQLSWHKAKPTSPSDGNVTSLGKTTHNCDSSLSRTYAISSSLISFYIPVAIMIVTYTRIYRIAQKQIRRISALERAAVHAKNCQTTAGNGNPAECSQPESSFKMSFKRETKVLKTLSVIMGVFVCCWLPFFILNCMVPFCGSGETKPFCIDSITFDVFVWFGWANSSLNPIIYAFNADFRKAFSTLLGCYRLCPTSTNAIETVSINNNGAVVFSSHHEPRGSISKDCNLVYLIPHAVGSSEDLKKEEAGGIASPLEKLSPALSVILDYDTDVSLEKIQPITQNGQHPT
Sequence of D(3) dopamine receptor (P35462 whole entry): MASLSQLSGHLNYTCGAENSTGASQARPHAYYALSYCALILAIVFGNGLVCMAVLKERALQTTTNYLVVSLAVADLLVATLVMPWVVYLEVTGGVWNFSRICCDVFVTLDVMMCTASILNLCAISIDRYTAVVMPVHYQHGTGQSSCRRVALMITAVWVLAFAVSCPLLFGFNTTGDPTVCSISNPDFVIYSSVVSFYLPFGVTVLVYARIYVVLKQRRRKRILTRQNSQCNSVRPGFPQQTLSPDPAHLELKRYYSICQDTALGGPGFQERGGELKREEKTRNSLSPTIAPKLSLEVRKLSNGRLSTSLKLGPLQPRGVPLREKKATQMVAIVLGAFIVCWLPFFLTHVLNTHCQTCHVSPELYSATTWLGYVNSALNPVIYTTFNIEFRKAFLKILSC
Description for D(3) dopamine receptor: Binding affinity towards human D3 receptor using [3H]spiperone expressed in CHO cells
Description for D(4) dopamine receptor: Binding affinity towards human D4.4 receptor using [3H]spiperone expressed in CHO cells

What is called Ki is the dissociation constant of the complex between target and ligand, obtained from inhibition or displacement. Read a low Ki as tighter binding. For the compound `COc1ccccc1N1CCN(CCCCNC(=O)c2cc3cc(I)ccc3o2)CC1`, the inhibition constant Ki came out at 1.4 nM at D(3) dopamine receptor; 420 nM on D(1A) dopamine receptor; 46 nM at D(4) dopamine receptor; 230 nM in experiment [1]; 27 nM at D(2) dopamine receptor [2].
As to `COc1ccccc1N1CCN(CCCCNC(=O)c2ccc(I)s2)CC1`, the Ki on D(3) dopamine receptor is 2.4 nM; on D(1A) dopamine receptor, 600 nM; on D(4) dopamine receptor, 31 nM; in experiment [1] it was 690 nM; at D(2) dopamine receptor [3], 75 nM; at D(2) dopamine receptor [2], 35 nM.
As for `O=C(NCCCCN1CCN(c2cccc(Cl)c2Cl)CC1)c1cc2cc(I)ccc2s1`, the inhibition constant (Ki) turned out to be 4.5 nM at D(3) dopamine receptor; 1400 nM on D(1A) dopamine receptor; 550 nM on D(4) dopamine receptor; 290 nM in experiment [1]; 450 nM on D(2) dopamine receptor [3]; 140 nM on D(2) dopamine receptor [2].
With `O=C(NCCCCN1CCN(c2cccc(Cl)c2Cl)CC1)c1cc2cc(I)ccc2o1`, the inhibitory constant (Ki) was 3300 nM at D(1A) dopamine receptor; 2200 nM on D(4) dopamine receptor; 790 nM in experiment [1]; 3200 nM on D(2) dopamine receptor [3]; 430 nM at D(2) dopamine receptor [2].
With `COc1ccccc1N1CCN(CCCCNC(=O)c2cc3cc(I)ccc3s2)CC1`, the inhibition constant (Ki) at D(3) dopamine receptor is 0.86 nM; at D(1A) dopamine receptor, 520 nM; on D(4) dopamine receptor it was 42 nM; in experiment [1], 250 nM; on D(2) dopamine receptor [3] it was 48 nM; on D(2) dopamine receptor [2], 1 nM.
With `O=C(NCCCCN1CCN(c2cccc(Cl)c2Cl)CC1)c1ccc(I)s1`, the Ki at D(3) dopamine receptor was 1.4 nM; on D(1A) dopamine receptor it was 820 nM; at D(4) dopamine receptor, 130 nM; in experiment [1] it was 210 nM; on D(2) dopamine receptor [3], 89 nM; on D(2) dopamine receptor [2] it was 32 nM.
On to `O=C(NCCCCN1CCN(c2cccc(Cl)c2Cl)CC1)c1cc2ccccc2s1`, for which, in experiment [1], the affinity corresponds to a Ki of 3000 nM. This counts as single-digit micromolar.

Values taken from ChEMBL document CHEMBL1137095, “Synthesis and radioiodination of selective ligands for the dopamine D3 receptor subtype” (Bioorg Med Chem Lett, 2004).
